Literature values in patent publication US20040127402A1, “Injectible composition and method for treating degenerative animal joints” (priority 2002, published 2004).

What was measured:
[1] = animal studies

## Hyaluronic acid
osteoarthritis; in vivo, po
  duration of superiority to oral medications: up to six
osteoarthritis; joint lavage prior to hyaluronic acid therapy
  duration of positive benefits: up to one
[1]
  chondroprotective effect: mild chondroprotective effect
